Results published in patent US6432446B1, “Non-arrhythmogenic metabolite of oxybutynin” (Bridge Pharma, Inc., priority 2000, dated 2002).

Columns and labels:
[1] = test system: Male guinea pigs; assay: Cardiac side effects: QTc interval of the EKG in anesthetized guinea pigs; type: in vivo, guinea pig; settings: intravenous infusion over 30 min
Protocol: Male guinea pigs (450-600 g) are anesthetized with freshly prepared dialurethane sodium. The jugular vein is catheterized for iv administration of test drugs and the trachea is exposed and cannulated. Subdermal electrodes are positioned for Lead II electrocardiogram recording, monitored on a Grass Polygraph recorder, set at a paper speed of 50 nmmsec. The animals are allowed to stabilize for 30 minute after completion of surgery, and three baseline EKG recordings are then made at 10-minute intervals. The animals are then given a dose of the test compound or vehicle as an intravenous inflision over 30 min. EKG recordings are used to determine QT intervals and heart rates. To compensate for variations in heart rates, QTc intervals are calculated from QT- and RR-intervals as known to those skilled in the art. Prolongation of QTc is indicative of a prolonged action potential, caused by an inhibition of the delayed rectifier potassium channel. Prolongation of QTc is the known cause of Torsades de Pointes ventricular fibrillation by drugs such as terfenadine and astemizole (now withdrawn from the market).

[2] = test system: patients with conditions characterized by involuntary bladder contractions; settings: clinical studies; cited from earlier work
[3] = isomers of racemic oxybutynin; cited from earlier work
[4] = test system: Strips of intestinal smooth muscle tissue
Protocol: 2. Functional Characterization of Antimuscarinic/Antispasmodic Activity.
Strips of intestinal smooth muscle tissue are removed from the body of male Hartley guinea pigs weighing 400-600 g. The strips are suspended in an oxygenated buffer of the following composition, in mM: NaCl, 133; KCl, 4.7; CaCl2, 2.5; MgSO4, 0.6; NaH2PO4, 1.3; NaHCO3, 16.3; and glucose, 7.7, or a similar balanced physiological solution. They are maintained at constant temperature. Contractions are recorded with isometric transducers (Model FT-10) on an ink-writing polygraph.
In each experiment up to seven strips are removed from a single animal, suspended in individual tissue chambers and allowed to equilibrate with the bathing solution for one hour before proceeding with the experiment.
In order to assess the viability of each tissue and to serve as a frame of reference, contractions of each strip of tissue are recorded initially in response to exposure to a tissue medium in which the NaCl was replaced by KCl to yield a concentration of 137.7 mM KCl in the medium. […] Then, leaving one strip untreated and/or one strip exposed to the test solution to serve as control tissue(s), the remaining strips each are exposed for one hour to one concentration of an antagonist. Finally, the responses to increasing concentrations of carbachol followed by exposure to 137.7 mM KCl are recorded a second time. To determine whether antagonists decrease the peak response to agonists, the peak tension developed by each strip during the second set of determinations is expressed as a percent of the peak tension developed during the first concentration-effect determination. Then, for each antagonist the resultant data are analyzed using standard statistical methodology.

[5] = drugs withdrawn from the market because of this side effect; cited from earlier work
[6] = Risk for torsades des pointes of drugs combined with oxybutynin
[7] = test system: human recombinant muscarinic receptor subtypes; assay: Ligand binding studies: muscarinic receptors; settings: compared with the des-ethyl metabolite
Protocol: 1. Ligand Binding Studies: Muscarinic Receptors.
The experiments are carried out on membranes prepared from SF9 cells infected with baculovirus to express human recombinant muscarinic receptor subtypes. After incubation with the test article and the proper radioligand and washing, bound radioactivity is determnined with a liquid scintillation counter, using a commercial scintillation cocktail. The specific radioligand binding to each receptor is defined as the difference between total binding and nonspecific binding determined in the presence of an excess of unlabelled ligand. IC50 values (concentrations required to inhibit 50% of specific binding) are determined by non linear regression analysis of the competition curves. These parameters are obtained by curve fitting using Sigmaplot software.

[8] = test system: benzothiazepine receptors; assay: Affinity for benzothiazepine receptors; type: binding; settings: compared with the des-ethyl metabolite

## CCNCC#CCOC(=O)C(O)(c1ccccc1)C1CCCCC1 (racemic) [desethyl metabolite of oxybutynin, 4-ethylamino-2-butynyl cyclohexyl-phenylglycolate]
[1]
  prolongation of the QTc-interval of the EKG: free from said cardiac side effect

## CCN(CC)CC#CCOC(=O)C(O)(c1ccccc1)C1CCCCC1 (racemic) [oxybutynin, 4-diethylamino-2-butynyl cyclohexylphenylglycolate]
[1]
  prolongation of the QTc-interval of the EKG: causes a prolongation of the QTc-interval
[2]
  bladder capacity: increases bladder capacity
  frequency of involuntary contractions of the detrusor muscle: diminishes the frequency of involuntary contractions of the detrusor muscle
  initial desire to void: delays the initial desire to void

## CCN(CC)CC#CCOC(=O)[C@](O)(c1ccccc1)C1CCCCC1 (single isomer, unassigned) [R(−)-isomer, R(−)-oxybutynin]
[1]
  prolongation of the QTc-interval of the EKG: cause a prolongation of the QTc-interval
[3]
  anticholinergic activity: practically all of the anticholinergic activity of OXY resides in the R(−)-isomer

## CCNCC#CCOC(=O)[C@](O)(c1ccccc1)C1CCCCC1 (single isomer, unassigned) [R-isomer of the des-ethyl metabolite of oxybutynin]
[4]
  antimuscarinic / anticholinergic activity: potent antimuscarinic agent

## CCN(CC)CC#CCOC(=O)[C@@](O)(c1ccccc1)C1CCCCC1 (single isomer, unassigned) [S(+)-isomer, S(+)-oxybutynin]
[1]
  prolongation of the QTc-interval of the EKG: cause a prolongation of the QTc-interval
[3]
  spasmolytic activity: direct spasmolytic activity

## CCNCC#CCOC(=O)[C@@](O)(c1ccccc1)C1CCCCC1 (single isomer, unassigned) [S-isomer of the des-ethyl metabolite of oxybutynin]
[4]
  antimuscarinic / anticholinergic activity: weak anticholinergic activity
  spasmolytic activity: spasmolytic agent

## COc1ccc(CCN2CCC(Nc3nc4ccccc4n3Cc3ccc(F)cc3)CC2)cc1 [astemizole]
[5]
  prolongation of QTc: found to cause prolongation of QTc

## CC(=O)N1CCN(c2ccc(OCC3COC(Cn4ccnc4)(c4ccc(Cl)cc4Cl)O3)cc2)CC1 (stereo not drawn) [ketoconazole]
[6]
  risk for torsades des pointes: further increase the risk for torsades des pointes

## CC(CC(c1ccccc1)c1ccccc1)NC(C)(C)C (stereo not drawn) [terodiline]
[5]
  prolongation of QTc: found to cause prolongation of QTc

## didesethyloxybutynin [didesethyl metabolite]
[1]
  prolongation of the QTc-interval of the EKG: does not prolong the QTc interval
[7]
  affinity for muscarinic receptors: somewhat lower affinity
[8]
  affinity for benzothiazepine receptors: somewhat lower affinity
